In paper PMC10222328 (Pharmaceuticals, 2023):

Tests used:
5-LOX = biological target: T1, 5-LOX (Homo sapiens, UniProt P09917); experiment: Fluorometric 5-LOX inhibitor screening kit; assay type: biochemical; details: mean ± standard error of two measurements; for inhibition at 10 µM: read-out: 5-LOX Percent of Inhibition
T1 construct: purchased Abcam, UK
T1 sequence (P09917 1-674): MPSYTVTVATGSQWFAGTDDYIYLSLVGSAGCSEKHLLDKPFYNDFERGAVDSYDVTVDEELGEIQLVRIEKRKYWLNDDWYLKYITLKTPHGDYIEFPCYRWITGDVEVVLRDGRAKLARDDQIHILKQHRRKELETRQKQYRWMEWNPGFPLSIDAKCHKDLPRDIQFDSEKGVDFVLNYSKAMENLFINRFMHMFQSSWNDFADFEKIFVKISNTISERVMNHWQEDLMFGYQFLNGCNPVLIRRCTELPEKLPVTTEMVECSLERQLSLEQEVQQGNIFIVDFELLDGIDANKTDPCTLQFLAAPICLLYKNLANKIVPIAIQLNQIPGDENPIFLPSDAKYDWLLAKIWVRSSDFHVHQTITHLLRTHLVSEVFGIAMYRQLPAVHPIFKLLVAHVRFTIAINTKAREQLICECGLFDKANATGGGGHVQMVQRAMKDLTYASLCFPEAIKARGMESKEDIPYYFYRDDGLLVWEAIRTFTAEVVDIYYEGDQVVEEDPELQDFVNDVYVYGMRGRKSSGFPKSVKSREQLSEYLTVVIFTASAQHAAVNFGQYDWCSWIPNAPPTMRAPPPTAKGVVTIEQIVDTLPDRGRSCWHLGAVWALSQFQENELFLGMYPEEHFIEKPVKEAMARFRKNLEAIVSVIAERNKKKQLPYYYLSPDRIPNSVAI
Procedure: COX-2 and 5-LOX inhibitory activities were tested using fluorometric COX-2 and 5-LOX inhibitor screening kits (Abcam, UK). These assays are based on the fluorometric detection of Prostaglandin G2 (a product generated by the COX enzyme) or on the fluorometric detection of intermediate generated by the 5-LOX enzyme. The experiments were conducted according to the manufacturers’ instructions.
For the determination of COX-2 inhibitory activity, tested compounds were dissolved in DMSO (5 mM stock solutions) and then diluted with the same solvent to obtain test solutions. Test solutions were further diluted 5X with COX assay buffer (2 µL of test solution and 8 µL COX assay buffer). […] Solvent control (SC) was prepared by adding 2 µL DMSO and 8 µL COX assay buffer, while sample (S) and enzyme control (EC) were prepared by adding 10 µL of diluted test solution and COX assay buffer, respectively, into assigned wells. For the determination of 5-LOX inhibitory activity, tested compounds were also dissolved in DMSO to prepare stock solutions with the same concentration (5mM), which were then diluted with the same solvent to obtain test solutions. Subsequently, test solutions were added to corresponding wells (2 µL).

[1] = tested on: carrageenan-induced rat paw edema; experiment: Carrageenan-induced rat paw edema model; assay type: in vivo, Wistar albino rats; details: for Rat paw thickness: mean ± SD; for inhibition in vivo at 2.5 mg/kg / inhibition in vivo at 5 mg/kg / inhibition in vivo at 10 mg/kg: Rattus norvegicus, po
Procedure: In vivo assessment of anti-inflammatory activity of compounds 1–7 was conducted in the carrageenan-induced rat paw edema model. Inflammation in all rats was induced by an intraplantar injection of […] of 0.5% carrageenan saline in the left hind paw. Two hundred male Wistar albino rats (180–210 g) were divided into seven experimental (n = 168 rats, 8 rats per subgroup) and two control groups (n = 32 rats, 8 rats per subgroup).
Experimental groups involved rats that received compounds 1–7, and they were divided into three subgroups: rats received compounds 1–7 per os in three doses (2.5 mg/kg, 5 mg/kg, and 10 mg/kg) dissolved in 1% DMSO for 60 min before inducing inflammation.
In order to quantify the anti-inflammatory effect, the thickness of the left paw tissue of each rat was measured at the following time intervals: immediately before inducing inflammation (moment 0) and 1, 2, 3, and 4 h (moments 1, 2, 3, and 4) after inflammation. Tissue thickness was measured in the middle of the rat paw using a digital vernier caliper (Aerospace, Beijing, China).

[2] = Acute oral toxicity evaluation in rats; assay type: in vivo, Wistar albino rats; details: single oral dose 10 mg/kg, after 14 days, (absolute organ weight × 100%)/body weight
Procedure: Healthy male rats (n = 24, three rats per group, body weight 180–200 g) were used for conducting an acute oral toxicity study. Animals were divided into the following groups: a control group that included rats that received a single dose of 1% DMSO and experimental groups that involved rats that received compounds 1–7 in the single dose of 10 mg/kg.
After oral administration of the aforementioned agents, rats were kept in single cages and monitored during 14 days. Food and water intake, as well as body weight, were measured daily. All the behavioral changes and any signs of toxicity were monitored daily during 2-week protocol (fur and skin, eyes, salivation, respiration, urination (color), faeces consistency, somatomotor activity, and other alterations in behavior pattern). After accomplishing 14 days, animals were sacrificed and organ weight (liver, kidney, stomach, and heart) was recorded. Relative organ weight was calculated as follows:(absolute organ weight × 100%)/body weight of rat on the day of sacrifice.(1)

[3] = 2.5 mg/kg per os, 1 h after carrageenan
[4] = 2.5 mg/kg per os, 2 h after carrageenan
[5] = 2.5 mg/kg per os, 3 h after carrageenan
[6] = 2.5 mg/kg per os, 4 h after carrageenan
[7] = 5.0 mg/kg per os, 1 h after carrageenan
[8] = 5.0 mg/kg per os, 2 h after carrageenan
[9] = 5.0 mg/kg per os, 3 h after carrageenan
[10] = 5.0 mg/kg per os, 4 h after carrageenan
[11] = 10.0 mg/kg per os, 1 h after carrageenan
[12] = 10.0 mg/kg per os, 2 h after carrageenan
[13] = 10.0 mg/kg per os, 3 h after carrageenan
[14] = 10.0 mg/kg per os, 4 h after carrageenan
[15] = 1 h, 2.5 mg/kg per os, 1 h after carrageenan
[16] = 1 h, 5.0 mg/kg per os, 1 h after carrageenan
[17] = 1 h, 10.0 mg/kg per os, 1 h after carrageenan
[18] = 2 h, 2.5 mg/kg per os, 2 h after carrageenan
[19] = 2 h, 5.0 mg/kg per os, 2 h after carrageenan
[20] = 2 h, 10.0 mg/kg per os, 2 h after carrageenan
[21] = 3 h, 2.5 mg/kg per os, 3 h after carrageenan
[22] = 3 h, 5.0 mg/kg per os, 3 h after carrageenan
[23] = 3 h, 10.0 mg/kg per os, 3 h after carrageenan
[24] = 4 h, 2.5 mg/kg per os, 4 h after carrageenan
[25] = 4 h, 5.0 mg/kg per os, 4 h after carrageenan
[26] = 4 h, 10.0 mg/kg per os, 4 h after carrageenan

Structure (SMILES)	inhibition at 10 µM (5-LOX) [%]	IC50 (5-LOX) [µM]	Rat paw thickness [1, 3] [mm]	Rat paw thickness [1, 4] [mm]	Rat paw thickness [1, 5] [mm]	Rat paw thickness [1, 6] [mm]	Rat paw thickness [1, 7] [mm]	Rat paw thickness [1, 8] [mm]	Rat paw thickness [1, 9] [mm]	Rat paw thickness [1, 10] [mm]	Rat paw thickness [1, 11] [mm]	Rat paw thickness [1, 12] [mm]	Rat paw thickness [1, 13] [mm]	Rat paw thickness [1, 14] [mm]	inhibition in vivo at 2.5 mg/kg [1, 15] [%]	inhibition in vivo at 5 mg/kg [1, 16] [%]	inhibition in vivo at 10 mg/kg [1, 17] [%]	inhibition in vivo at 2.5 mg/kg [1, 18] [%]	inhibition in vivo at 5 mg/kg [1, 19] [%]	inhibition in vivo at 10 mg/kg [1, 20] [%]	other results
COc1ccc2cc([C@H](C)C(=O)NC(=S)Nc3ccc(F)cc3)ccc2c1 [Compound 1, (S)-N-((4-fluorophenyl)carbamothioyl)-2-(6-methoxynaphthalen-2-yl)propanamide]	34.2 ± 1.04	19.2 ± 0.96	6.50 ± 0.40	6.50 ± 0.40	6.20 ± 0.30	5.53 ± 0.29	7.00 ± 0.10	6.50 ± 0.17	5.8 ± 0.20	5.27 ± 0.29	7.03 ± 0.12	6.60 ± 0.10	6.10 ± 0.17	5.27 ± 0.50	20.3	-7.22	-5.84	11.1	3.45	1.92	inhibition in vivo at 2.5 mg/kg [1, 21]: 10.5%; inhibition in vivo at 5 mg/kg [1, 22]: 23.3%; inhibition in vivo at 10 mg/kg [1, 23]: 10.5%; inhibition in vivo at 2.5 mg/kg [1, 24]: 33.3%; inhibition in vivo at 5 mg/kg [1, 25]: 40.2%; inhibition in vivo at 10 mg/kg [1, 26]: 44.8%; Relative organ weight, heart [2]: 0.32 ± 0.02; Relative organ weight, kidney [2]: 0.31 ± 0.03; Relative organ weight, liver [2]: 2.73 ± 0.24; Relative organ weight, stomach [2]: 0.54 ± 0.05
COc1ccc(NC(=S)NC(=O)[C@@H](C)c2ccc3cc(OC)ccc3c2)cc1 [Compound 2, (S)-2-(6-methoxynaphthalen-2-yl)-N-((4-methoxyphenyl)carbamothioyl)propanamide]	25.1 ± 1.83	39.8 ± 1.98	6.57 ± 1.16	6.07 ± 0.72	5.77 ± 0.42	5.30 ± 0.26	7.03 ± 0.47	6.40 ± 0.53	5.70 ± 0.20	5.53 ± 0.29	6.5 ± 0.40	6.17 ± 0.67	5.53 ± 0.15	5.33 ± 0.25	9.28	6.53	23	21.8	24.9	29.5	inhibition in vivo at 2.5 mg/kg [1, 21]: 23.3%; inhibition in vivo at 5 mg/kg [1, 22]: 48.9%; inhibition in vivo at 10 mg/kg [1, 23]: 50.7%; inhibition in vivo at 2.5 mg/kg [1, 24]: 35.6%; inhibition in vivo at 5 mg/kg [1, 25]: 47.1%; inhibition in vivo at 10 mg/kg [1, 26]: 51.7%; Relative organ weight, heart [2]: 0.33 ± 0.04; Relative organ weight, kidney [2]: 0.34 ± 0.04; Relative organ weight, liver [2]: 3.07 ± 0.38; Relative organ weight, stomach [2]: 0.57 ± 0.04
CCOc1ccc(NC(=S)NC(=O)[C@@H](C)c2ccc3cc(OC)ccc3c2)cc1 [Compound 3, (S)-N-((4-ethoxyphenyl)carbamothioyl)-2-(6-methoxynaphthalen-2-yl)propanamide]	47 ± 4.32	9.52 ± 1.51	6.25 ± 0.21	6.0 ± 0.57	5.50 ± 0.42	5.10 ± 0.14	6.40 ± 0.79	5.73 ± 0.38	5.44 ± 0.28	4.97 ± 0.42	6.23 ± 0.25	5.80 ± 0.26	5.27 ± 0.15	4.67 ± 0.38	19.6	6.53	3.78	21.8	26.4	12.6	inhibition in vivo at 2.5 mg/kg [1, 21]: 34.2%; inhibition in vivo at 5 mg/kg [1, 22]: 28.6%; inhibition in vivo at 10 mg/kg [1, 23]: 25.1%; inhibition in vivo at 2.5 mg/kg [1, 24]: 44.7%; inhibition in vivo at 5 mg/kg [1, 25]: 42.5%; inhibition in vivo at 10 mg/kg [1, 26]: 47 to 54%; Relative organ weight, heart [2]: 0.31 ± 0.03; Relative organ weight, kidney [2]: 0.32 ± 0.06; Relative organ weight, liver [2]: 2.85 ± 0.17; Relative organ weight, stomach [2]: 0.50 ± 0.05
